Experimental data as given in US8952163B2, “Substituted hydroxamic acids and uses thereof” (Millennium Pharmaceuticals, Inc., priority 2010, dated 2015).

biological target: T1, purified human HDAC6 (Homo sapiens, UniProt Q9UBN7); assay: HDAC6 Enzyme Assay; format: biochemical; settings: test compound at 1.235 μM; substrate Ac-Arg-Gly-Lys(Ac)-AMC, 1 hour at 30° C.; read-out: Percent Inhibition at 1.235 μM
T1 construct: purchased BPS Bioscience 5006
T1 sequence (Q9UBN7 1-1215): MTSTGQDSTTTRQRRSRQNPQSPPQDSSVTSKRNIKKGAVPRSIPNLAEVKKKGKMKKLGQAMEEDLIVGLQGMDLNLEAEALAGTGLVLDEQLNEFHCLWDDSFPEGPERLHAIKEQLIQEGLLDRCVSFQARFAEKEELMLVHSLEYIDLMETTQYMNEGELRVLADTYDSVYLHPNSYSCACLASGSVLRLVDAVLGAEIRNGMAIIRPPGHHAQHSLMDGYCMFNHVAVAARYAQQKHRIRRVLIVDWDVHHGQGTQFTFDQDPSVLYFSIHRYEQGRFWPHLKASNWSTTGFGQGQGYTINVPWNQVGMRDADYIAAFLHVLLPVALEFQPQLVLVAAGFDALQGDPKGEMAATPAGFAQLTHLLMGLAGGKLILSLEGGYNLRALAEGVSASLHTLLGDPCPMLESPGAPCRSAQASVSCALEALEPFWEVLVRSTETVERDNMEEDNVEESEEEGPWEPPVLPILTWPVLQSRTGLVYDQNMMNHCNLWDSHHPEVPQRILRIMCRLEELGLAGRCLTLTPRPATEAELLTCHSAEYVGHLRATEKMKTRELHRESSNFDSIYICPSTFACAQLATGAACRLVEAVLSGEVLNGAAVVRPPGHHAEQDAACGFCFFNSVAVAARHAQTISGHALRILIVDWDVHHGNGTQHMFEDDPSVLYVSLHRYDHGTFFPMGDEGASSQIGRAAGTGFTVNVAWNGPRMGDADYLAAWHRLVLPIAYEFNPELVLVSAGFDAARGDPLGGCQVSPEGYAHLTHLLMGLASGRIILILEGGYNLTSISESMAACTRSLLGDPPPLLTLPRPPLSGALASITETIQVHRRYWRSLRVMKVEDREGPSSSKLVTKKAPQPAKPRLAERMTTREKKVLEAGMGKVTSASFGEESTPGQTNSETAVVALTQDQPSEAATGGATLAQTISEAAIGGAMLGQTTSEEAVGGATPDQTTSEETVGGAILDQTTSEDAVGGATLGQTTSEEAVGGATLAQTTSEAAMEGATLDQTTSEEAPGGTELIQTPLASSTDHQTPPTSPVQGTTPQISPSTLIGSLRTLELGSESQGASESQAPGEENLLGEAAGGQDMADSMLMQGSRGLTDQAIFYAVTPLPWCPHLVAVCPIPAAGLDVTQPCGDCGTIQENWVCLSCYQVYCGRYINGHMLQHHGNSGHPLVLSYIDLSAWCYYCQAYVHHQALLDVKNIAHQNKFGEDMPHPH
Method: To measure the inhibition of HDAC6 activity, purified human HDAC6 (BPS Bioscience; Cat. No. 5006) is incubated with substrate Ac-Arg-Gly-Lys(Ac)-AMC peptide (Bachem Biosciences; Cat. No. I-1925) for 1 hour at 30° C. in the presence of test compounds or vehicle DMSO control. The reaction is stopped with the HDAC inhibitor trichostatin A (Sigma; Cat. No. T8552) and the amount of Arg-Gly-Lys-AMC generated is quantitated by digestion with trypsin (Sigma; Cat. No. T1426) and subsequent measurement of the amount of AMC released using a fluorescent plate reader (Pherastar, BMG Technologies) set at Ex 340 nm and Em 460 nm. Concentration response curves are generated by calculating the fluorescence increase in test compound-treated samples relative to DMSO-treated controls, and percentage inhibition values at a single concentration or enzyme inhibition (IC50) values are determined from those curves. One skilled in the art will appreciate that the values generated either as percentage inhibition at a single concentration or IC50 values are subject to experimental variation.

SMILES	inhibition at 1.235 µM [%]
CCCCOc1ccc(S(=O)(=O)N2CCc3ncc(C(=O)NO)cc3C2)cc1 [Compound I-57, 6-[(4-butoxyphenyl)sulfonyl]-N-hydroxy-5,6,7,8-tetrahydro-1,6-naphthyridine-3-carboxamide]	94.1
CCCCS(=O)(=O)N1CCc2nc(C(=O)NO)ccc2C1 [Compound I-61, 6-(butylsulfonyl)-N-hydroxy-5,6,7,8-tetrahydro-1,6-naphthyridine-2-carboxamide]	-3.95
CC(C)(C)c1ccc(C(=O)N2CCc3ncc(C(=O)NO)cc3C2)cc1 [Compound I-50, 6-(4-tert-butylbenzoyl)-N-hydroxy-5,6,7,8-tetrahydro-1,6-naphthyridine-3-carboxamide]	95.1
O=C(NO)c1cnc2c(c1)CCN(C(=O)C13CC4CC(CC(O)(C4)C1)C3)C2 [Compound I-26, N-hydroxy-7-[(3-hydroxy-1-adamantyl)carbonyl]-5,6,7,8-tetrahydro-1,7-naphthyridine-3-carboxamide]	94
O=C(NO)c1cnc2c(c1)CN(C(=O)C13CC4CC(CC(C4)C1)C3)CC2 [Compound I-31, 6-[1-adamantylcarbonyl]-N-hydroxy-5,6,7,8-tetrahydro-1,6-naphthyridine-3-carboxamide]	93.8
O=C(NO)c1ccc2c(n1)CCN(C(=O)c1[nH]c3ccccc3c1-c1ccccc1)C2 [Compound I-7, N-hydroxy-6-[(3-phenyl-1H-indol-2-yl)carbonyl]-5,6,7,8-tetrahydro-1,6-naphthyridine-2-carboxamide]	79
CC(C)(C)C(=O)N1CCc2nc(C(=O)NO)ccc2C1 [Compound I-46, 6-(2,2-dimethylpropanoyl)-N-hydroxy-5,6,7,8-tetrahydro-1,6-naphthyridine-2-carboxamide]	59
O=C(NO)c1ccc2c(n1)CCN(C(=O)NCCc1ccccc1)C2 [Compound I-55, N^2-hydroxy-N^6-(2-phenylethyl)-7,8-dihydro-1,6-naphthyridine-2,6(5H)-dicarboxamide]	58.3
CC(C)(C)OC(=O)N1CCc2cc(C(=O)NO)cnc2C1 [Compound I-3, tert-butyl 3-[(hydroxyamino)carbonyl]-5,8-dihydro-1,7-naphthyridine-7(6H)-carboxylate]	95.3
Cc1nc(-c2ccccn2)sc1C(=O)N1CCc2nc(C(=O)NO)ccc2C1 [Compound I-6, N-hydroxy-6-[(4-methyl-2-pyridin-2-yl-1,3-thiazol-5-yl)carbonyl]-5,6,7,8-tetrahydro-1,6-naphthyridine-2-carboxamide]	81.4
Cn1cccc1C(=O)N1CCc2nc(C(=O)NO)ccc2C1 [Compound I-11, N-hydroxy-6-[(1-methyl-1H-pyrrol-2-yl)carbonyl]-5,6,7,8-tetrahydro-1,6-naphthyridine-2-carboxamide]	73.9
CCCCOc1ccc(S(=O)(=O)N2CCc3nc(C(=O)NO)ccc3C2)cc1 [Compound I-60, 6-[(4-butoxyphenyl)sulfonyl]-N-hydroxy-5,6,7,8-tetrahydro-1,6-naphthyridine-2-carboxamide]	75.8
O=C(NO)c1ccc2c(n1)CCN(C(=O)c1cc3ccccc3o1)C2 [Compound I-14, 6-(1-benzofuran-2-ylcarbonyl)-N-hydroxy-5,6,7,8-tetrahydro-1,6-naphthyridine-2-carboxamide]	89.9
Cc1nc(C(=O)N2CCc3nc(C(=O)NO)ccc3C2)cs1 [Compound I-27, N-hydroxy-6-[(2-methyl-1,3-thiazol-4-yl)carbonyl]-5,6,7,8-tetrahydro-1,6-naphthyridine-2-carboxamide]	51.2
CC1(C(=O)N2CCc3nc(C(=O)NO)ccc3C2)CCCCC1 [Compound I-19, N-hydroxy-6-[(1-methylcyclohexyl)carbonyl]-5,6,7,8-tetrahydro-1,6-naphthyridine-2-carboxamide]	79.5
O=C(NO)c1ccc2c(n1)CCN(C(=O)C13CC4CC(CC(C4)C1)C3)C2 [Compound I-22, 6-[1-adamantylcarbonyl]-N-hydroxy-5,6,7,8-tetrahydro-1,6-naphthyridine-2-carboxamide]	90.2
O=C(NO)c1cnc2c(c1)CN(S(=O)(=O)c1ccc(C(F)(F)F)cc1)CC2 [Compound I-62, N-hydroxy-6-{[4-(trifluoromethyl)phenyl]sulfonyl}-5,6,7,8-tetrahydro-1,6-naphthyridine-3-carboxamide]	94.7
COc1ccc(C(=O)N2CCc3ncc(C(=O)NO)cc3C2)cc1 [Compound I-32, N-hydroxy-6-(4-methoxybenzoyl)-5,6,7,8-tetrahydro-1,6-naphthyridine-3-carboxamide]	93

Now from value to molecule:

inhibition at 1.235 µM [%]	SMILES
94.9	O=C(NO)c1cnc2c(c1)CN(C(=O)c1cc3ccccc3o1)CC2 [Compound I-44, 6-(1-benzofuran-2-ylcarbonyl)-N-hydroxy-5,6,7,8-tetrahydro-1,6-naphthyridine-3-carboxamide]
97.2	O=C(NO)c1cnc2c(c1)CCN(C(=O)c1cc3ccccc3s1)C2 [Compound I-4, 7-(1-benzothien-2-ylcarbonyl)-N-hydroxy-5,6,7,8-tetrahydro-1,7-naphthyridine-3-carboxamide]
91.9	O=C(NO)c1cnc2c(c1)CCN(C(=O)c1ccc(Cl)cc1)C2 [Compound I-28, 7-(4-chlorobenzoyl)-N-hydroxy-5,6,7,8-tetrahydro-1,7-naphthyridine-3-carboxamide]
93.7	O=C(NO)c1cnc2c(c1)CCN(C(=O)c1[nH]c3ccccc3c1-c1ccccc1)C2 [Compound I-37, N-hydroxy-7-[(3-phenyl-1H-indol-2-yl)carbonyl]-5,6,7,8-tetrahydro-1,7-naphthyridine-3-carboxamide]
94.1	O=C(NO)c1ccc2c(n1)CCN(C(=O)c1cc3ccccc3s1)C2 [Compound I-49, 6-(1-benzothien-2-ylcarbonyl)-N-hydroxy-5,6,7,8-tetrahydro-1,6-naphthyridine-2-carboxamide]
93.4	CC(C)(C)c1ccc(C(=O)N2CCc3cc(C(=O)NO)cnc3C2)cc1 [Compound I-41, 7-(4-tert-butylbenzoyl)-N-hydroxy-5,6,7,8-tetrahydro-1,7-naphthyridine-3-carboxamide]
94.5	O=C(NO)c1cnc2c(c1)CN(C(=O)c1ccc(Cl)cc1)CC2 [Compound I-12, 6-(4-chlorobenzoyl)-N-hydroxy-5,6,7,8-tetrahydro-1,6-naphthyridine-3-carboxamide]
91.1	COc1ccc(C(=O)N2CCc3cc(C(=O)NO)cnc3C2)cc1 [Compound I-48, N-hydroxy-7-(4-methoxybenzoyl)-5,6,7,8-tetrahydro-1,7-naphthyridine-3-carboxamide]
92	Cc1nc(-c2ccccn2)sc1C(=O)N1CCc2ncc(C(=O)NO)cc2C1 [Compound I-23, N-hydroxy-6-[(4-methyl-2-pyridin-2-yl-1,3-thiazol-5-yl)carbonyl]-5,6,7,8-tetrahydro-1,6-naphthyridine-3-carboxamide]
93.4	O=C(NO)c1cnc2c(c1)CN(C(=O)c1sc3ccccc3c1Cl)CC2 [Compound I-5, 6-[(3-chloro-1-benzothien-2-yl)carbonyl]-N-hydroxy-5,6,7,8-tetrahydro-1,6-naphthyridine-3-carboxamide]
